Common to all, as to format: cell-based
In assay [1] the test system is XF498. The assay can be described thus: SRB cytotoxicity (anti-tumor activity) in vitro, XF498. Particulars: Homo sapiens, XF498 central nerve system tumor, 48 hours, read-out: ED50 (the source's name). From the text:
(§1) Anti-Tumor (Cyto-Toxicity) Effect in vitro of the Compound According to the Present Invention
(§2) The method for detecting cyto-toxicity employed in the present experiment is Sulforhodamin B Bioassay (SRB) method, which was developed by National Cancer Institute (NCI) in the United States in 1989, for the purpose of measuring anti-tumor activity in vitro.
(§3) The tumor cells used in the experiments via SRB method are listed below:
XF498: central nerve system tumor
(§4) The tumor cells listed above are all human tumor cell-lines, which were distributed from NCI in the United States and subcultured in Korea Chemical Institute. As a culture medium, RPMI 1640 culture medium supplemented with 5% FBS (fetal bovine serum) was used. Cultivation was performed in an 5% CO2 incubator with constant temperature (37° C.) and humidity. The subculture was carried out every three or four days, and a solution of 0.25% tyrosine and 3 mM trans-1,2-diaminocyclohexane-n,n,n,n-tetracetic acid (CDTA) dissolved in PBS (phosphate buffered saline) was used in order to release cells from the surface of the container.
(§5) The test compound synthesized according to the present invention was diluted to have a concentration of 30.0 μg/ml, 10.0 μg/ml, 3.0 μg/ml, 1.0 μg/ml, 0.3 μg/ml and 0.1 μg/ml, respectively, and the cyto-toxicity (anti-tumor activity) of the compound was measured. The maximum concentration of the sample was not more than 30.0 μg/ml. In order to prepare the samples for detection, DMSO (dimethylsulfoxide) was used, if necessary. The concentration of DMSO added was not more than 0.5%. Before added to the tumor cells, the sample solution, which was diluted via several steps, is filtered through a Millipore filter. In a sterile condition, the sample for detecting cyto-toxicity was prepared by means of SRB method using human tumor cell-lines such as A549, SK-OV-3, SK-MEL-2, XF498 and HCT15.
(§6) The subcultured tumor cells were released from the surface of instrument by using tyrosine-CDTA solution, and then charged on a 96-well flat bottom microplate to make the cell number 5×10^3 (A549, HCT15), 1×10^4 (SK-MEL-2, XF498) and 2×10^4 (SK-OV-3) for each cell. The tumor cells are attached on the bottom by cultivating in a CO2 incubator. After removing the culture medium by using an aspirator, the medium is eliminated by using log dose of six concentrations. To each well, 100 μl of 10% TCA (trichloroacetic acid) is added, and the plate was left for 1 hour at 4° C. to fix the cells on the bottom surface of the plate.
(§7) Then, the plate was washed with distilled water 5-6 times to completely remove the residual TCA solution, and dried up at room temperature. To each well of the completely dried plate, 100 μl of dye solution, in which 0.4% SRB solution was dissolved, was added to dye the cells for 30 minutes, and the cells were washed with 1% acetic acid to remove excess SRB which was not combined with the cells. The dyed cell plates were dried at room temperature, and 100 μl of 10 mM trisma base solution was added to each well. The solution was mixed by a titer plate shaker for 10 minutes to elute the dye solution. Then, the absorbance at 520 nm was measured by using a microplate reader.
(§8) In order to calculate the cyto-toxicity (anti-tumor activity) of the samples on tumor cells, the number of tumor cells at the point of adding the sample (Tz, zero time), the number of cells when only an excess amount of culture medium was added instead of the sample and cultured for 48 hours (C, control), and the number of cells when each concentration of the sample was added and cultured for 48 hours (T, test) were measured respectively. The cyto-toxicity was determined according to the following formulas:
(§9) When Tz>T: [(T-Tz)/(C-Tz)]×100
(§10) When Tz<T: [(T-Tz)/Tz]×100
(§11) From the calculated values thus obtained, ED50 (50% effective dose) [the concentration when the sample inhibits 50% of the growth of the tumor cells] was determined by the use of data regression tool of LOTUS program. […]

Assay [2] relates to SK-MEL-2. The assay can be described thus: SRB cytotoxicity (anti-tumor activity) in vitro, SK-MEL-2. Particulars: Homo sapiens, SK-MEL-2 malignant melanoma, 48 hours, read-out: ED50 (the source's name).
Text: as §1, §2, §3
SK-MEL-2: malignant melanoma, metastasis to skin of thigh
as §4, §5, §6, §7, §8, §9, §10, §11

Assay [3] deals with A549. The assay can be described thus: SRB cytotoxicity (anti-tumor activity) in vitro, A549. As to conditions: Homo sapiens; A549 non small cell lung carcinoma; SRB, 48 hours; read-out: ED50 (the source's name).
Text: as §1, §2, §3
A549: non small cell lungcarcinoma
as §4, §5, §6, §7, §8, §9, §10, §11

Assay [4] deals with HCT15. The experiment in a line: SRB cytotoxicity (anti-tumor activity) in vitro, HCT15. Particulars: Homo sapiens, HCT-15, HCT15 colon adenocarcinoma, 48 hours, read-out: ED50 (the source's name).
Text: as §1, §2, §3
HCT15: colon adenocarcinoma
as §4, §5, §6, §7, §8, §9, §10, §11

The test system of assay [5] is SK-OV-3. The assay can be described thus: SRB cytotoxicity (anti-tumor activity) in vitro, SK-OV-3. As to conditions: Homo sapiens, SK-OV-3 ovary adenocarcinoma, 48 hours, read-out: ED50 (the source's name).
Text: as §1, §2, §3
SK-OV-3: adenocarcinoma, ovary malignant ascites
as §4, §5, §6, §7, §8, §9, §10, §11

With `CC(=O)Oc1ccccc1C1(COC(=O)Cc2ccc([N+](=O)[O-])cc2)CO1` (centres unmarked) [Compound 33-2], the IC50 was determined as 16.4 µM in assay [1]; 14.2 µM in assay [2]; 44.3 µM in assay [3]; 17.3 µM in assay [4]; 24.4 µM in assay [5].
For `CC(=O)Oc1ccccc1C1(COC(=O)c2ccccc2)CO1` (centres unmarked) [Compound 33-5] the same measures were 6.2 µM, 8.5 µM, 43.3 µM, 7 µM and 9.9 µM.
Taken in the same sequence, the figures for `CC(=O)Oc1ccccc1C1(COC(=O)c2ccc(C)cc2)CO1` (centres unmarked) [Compound 33-6] were 8.7 µM, 6.9 µM, 41.4 µM, 9.3 µM and 10.6 µM.
For `C=C(CO)c1ccc(C)cc1OCc1ccc([N+](=O)[O-])cc1` [Compound 35, 2-(2-(4'-nitrobenzyloxy)-4-methylphenyl)-prop-2-ene-1-ol] the same measures were 5.5 µM, 9.1 µM, 4.6 µM, 8.7 µM and 0.3 µM.
For `C=C(CO)c1ccc(C)cc1OCc1ccc(OC)cc1` [Compound 35-1], the IC50 was 11.8 µM in assay [1]; 12.7 µM in assay [2]; 10.6 µM in assay [3]; 12.1 µM in assay [4]; 13.1 µM in assay [5].
With `C=C(CO)c1ccc(C)cc1OCc1ccc(C)cc1` [Compound 35-2, 2-(2-(4'-Methylbenzyloxy)-4-methylphenyl)-prop-2-ene-1-ol], the IC50 amounted to 7.2 µM in assay [1]; 8.8 µM in assay [2]; 10.9 µM in assay [3]; 9.1 µM in assay [4]; 9.6 µM in assay [5].
As for `C=C(CO)c1ccc(C)cc1OS(=O)(=O)c1ccc(C)cc1` [Compound 35-3, 2-(2-(4'-Toluenesulfoxy)-4-methylphenyl)-prop-2-ene-1-ol], the IC50 in assay [1] was 14 µM; in assay [2], 17.9 µM; in assay [3], 13.1 µM; in assay [4], 13.9 µM; in assay [5] it was 14.6 µM.

(Values after patent US6255517A, “Thymol derivatives having anti-tumor activity, and anti-cancer agent comprising the same” (Zee; Ok Pyo, priority 1998, dated 2001).)
